The values that follow come from paper PMC314469, “Protein Interaction Networks by Proteome Peptide Scanning” (PLoS Biology, 2004).

The test relates to Myo5 SH3 domain. As to the kind of experiment: SPOT analysis of cellulose-bound peptides (WISE), Myo5 SH3 domain (Dataset S4). It is filed as binding, Saccharomyces cerevisiae. The settings on record: for The normalized value in BLU units: Myo5 SH3 domain.
Setting [1] is: SPOT analysis of cellulose-bound peptides probed with Myo5 SH3 domain, normalized value.
Setting [2] is: SPOT analysis of membrane-bound peptides, normalized value (see methods).
[3] abbreviates: SPOT analysis of cellulose-bound 14-mer yeast proteome peptides, normalized value, mean where the peptide was synthesized more than once.
Where [4] appears, read: SPOT analysis of membrane-synthesized peptides probed with Myo5 SH3 domain, normalized value.

Turning to YEQTMKSPKYPSTY, the “The normalized value in BLU units (SPOT analysis, Myo5 SH3)” value under setting [1] is recorded as 138.4 BLU.
Take PHFAKHSPDSPRTS: under setting [2], the “The normalized value in BLU units” value is reported as 236.2 BLU.
The same measure, in the same setting: the value for GENIKITPQKPFWF was 115.0 BLU.
On to FPKKMGPPQWPFST, for which, under setting [3], the “The normalized value in BLU units” value turned out to be 279.0 BLU.
For FAYSLGLPGAPKIK, the “The normalized value in BLU units (SPOT analysis, Myo5 SH3)” value under setting [1] is reported as 75.8 BLU.
NLHGYGHPNPPNEK: the “The normalized value in BLU units” value under setting [3] turned out to be 216.6 BLU.
In the case of KFFKREYPDIPMIA, the “The normalized value in BLU units” value under setting [2] is 154.6 BLU.
Still for that read-out and setting: the figure for CLRARNGPVPPVHI is 207.8 BLU; for EWEEKLTPAGPLCP it is 297.2 BLU.
With ITAEKSAPTSPEVY, under setting [4], the “The normalized value in BLU units (SPOT analysis, Myo5 SH3)” value came out at 94.2 BLU.
In the case of KIIKKCSPSVPKEE, the “The normalized value in BLU units” value under setting [2] was found to be 242.5 BLU.
Regarding EFDMLLLPFIPSID, the “The normalized value in BLU units” value under setting [3] is listed as 249.2 BLU.
VLKIKPLPYKPRGR: under setting [4], the “The normalized value in BLU units (SPOT analysis, Myo5 SH3)” value is 646.7 BLU.
As to SGSGRRYPQTPSYY, the “The normalized value in BLU units” value under setting [2] came to 435.6 BLU.
Take AFYYKYYPVEPNCN: under setting [4], the “The normalized value in BLU units (SPOT analysis, Myo5 SH3)” value came to 187.7 BLU.
Same read-out and setting: the value for LSPAKARPSFPHND was 212.8 BLU; that for VVAVKIIPKKPWNA was 114.7 BLU; that for NLSLRYAPNLPPVI was 778.6 BLU.
With ISNRRPVPRRPSQP, the “The normalized value in BLU units” value under setting [2] is reported as 377.4 BLU.
Regarding KGVLKEYPMRPYGS, the “The normalized value in BLU units” value under setting [3] is 116.8 BLU.
The same measure, in the same setting: the value for LLAKLPLPRDPRVA was 343.8 BLU; that for LAIRLCWPPAPVTL was 154.7 BLU.
Take LDLSKYGPLPPSRA: under setting [4], the “The normalized value in BLU units (SPOT analysis, Myo5 SH3)” value is on record as 154.0 BLU.
On the same count and under the same terms, the value for NDMAKPLPTPPTAE was 113.6 BLU.
Take AAYDHAEPVQPEDA: the “The normalized value in BLU units (SPOT analysis, Myo5 SH3)” value under setting [1] is recorded as 146.1 BLU.
Still for that read-out and setting: the figure for SWLTMLPPMAPLLS is 504.9 BLU.
Same read-out and setting: the figure for IERVWNGPVEPSDE is 180.2 BLU.
Consider SRYLKDHPNLPTPE, for which the “The normalized value in BLU units (SPOT analysis, Myo5 SH3)” value under setting [4] turned out to be 69.2 BLU.
Take AAVRLDQPILPQND: the “The normalized value in BLU units (SPOT analysis, Myo5 SH3)” value under setting [1] is on record as 105.1 BLU.
Consider IDIPRTNPHIPLYQ, for which the “The normalized value in BLU units” value under setting [2] was 139.2 BLU.
On to DLSVHTSPHGPIGS, for which the “The normalized value in BLU units” value under setting [3] is recorded as 186.1 BLU.
Regarding VLSKFIKPKNPSLV, the “The normalized value in BLU units (SPOT analysis, Myo5 SH3)” value under setting [1] is listed as 319.5 BLU.
Turning to RLVNKLLPPHPFAD, the “The normalized value in BLU units (SPOT analysis, Myo5 SH3)” value under setting [4] was 289.2 BLU.
On to RLSLLRSPKAPDAH, for which the “The normalized value in BLU units” value under setting [3] turned out to be 442.3 BLU.
In the case of PPPPPPPPPVPA, under setting [1], the “The normalized value in BLU units (SPOT analysis, Myo5 SH3)” value came to 95729 BLU.
For the sequence AISKKLGPDTPIKV, the “The normalized value in BLU units (SPOT analysis, Myo5 SH3)” value under setting [4] is reported as 176.5 BLU.
On to EEQVKCNPNRPIYW, for which, under setting [2], the “The normalized value in BLU units” value stood at 110.0 BLU.
For VTSVKLHPNLPIVF, the “The normalized value in BLU units” value under setting [3] is given as 136.6 BLU.
Take VAVPFTLPVIPYDL: the “The normalized value in BLU units (SPOT analysis, Myo5 SH3)” value under setting [1] is 240.5 BLU.
Regarding NTVEKLQPGLPVII, under setting [2], the “The normalized value in BLU units” value came out at 279.7 BLU.
Consider HNAAKPIPHVPQAS, for which, under setting [3], the “The normalized value in BLU units” value is given as 62.3 BLU.
On to CKYNRQHPANPAAA, for which the “The normalized value in BLU units” value under setting [2] is recorded as 189.3 BLU.
Same read-out and setting: the value for EKEAKSEPQQPEDN was 139.0 BLU.
Regarding MDGIKELPEFPIKK, the “The normalized value in BLU units” value under setting [2] was determined as 138.4 BLU.
For the sequence SLISKRNPCYPYGI, the “The normalized value in BLU units” value under setting [3] came out at 483.2 BLU.
Regarding ISHNKLSPSEPILC, the “The normalized value in BLU units” value under setting [2] is given as 206.2 BLU.
As for LPKLKSNPSVPHLH, the “The normalized value in BLU units” value under setting [3] came out at 193.1 BLU.
SPNDHSDPSCPCNR: the “The normalized value in BLU units” value under setting [3] is reported as 76.1 BLU.
On to ELDTKTIPELPFCM, for which the “The normalized value in BLU units” value under setting [2] was found to be 53.2 BLU.
On the same count and under the same terms, the value for LTLTKWDPSKPISL was 231.0 BLU.
Regarding TSSSRRGPGRPRKD, under setting [4], the “The normalized value in BLU units (SPOT analysis, Myo5 SH3)” value is 619.5 BLU.
Same read-out and setting: the figure for QNGLRFNPDVPKLW is 260.1 BLU.
As to RRHNRQHPPYPHSG, the “The normalized value in BLU units” value under setting [2] came out at 1287.6 BLU.
For VNIGRRSPYLPLQP, the “The normalized value in BLU units (SPOT analysis, Myo5 SH3)” value under setting [4] came to 476.3 BLU.
For the sequence EAYRLNYPELPRLT, the “The normalized value in BLU units” value under setting [3] turned out to be 125.1 BLU.
For the sequence RPVYRLKPNAPFQY, the “The normalized value in BLU units (SPOT analysis, Myo5 SH3)” value under setting [4] is 209.8 BLU.
Take GTVTKTAPSFPQSS: under setting [4], the “The normalized value in BLU units (SPOT analysis, Myo5 SH3)” value is reported as 261.1 BLU.
For SLLAKYQPSLPLVE, the “The normalized value in BLU units” value under setting [2] stood at 162.4 BLU.
For the sequence FQPQRTAPKPPISA, under setting [4], the “The normalized value in BLU units (SPOT analysis, Myo5 SH3)” value was determined as 88304.9 BLU.
Turning to PIGSRYNPNLPVTE, the “The normalized value in BLU units” value under setting [2] is on record as 187.4 BLU.
